pEC50: −log10 of the molar value. Like-named read-outs stand apart in the source and are kept apart here. Non-standard residues stand in square brackets, D forms with d. Residues, ends and D or L forms follow the SMILES beside them. *: point of attachment. Palmitoyl = CCCCCCCCCCCCCCCC(=O)*
Tests used:
Colo-205 = format: cell-based, human; conditions: 24 h
Description: (§1) Hemacolor assay—A comparative study was effected between peptides GnRH—X and NLS-GnRH-E on three adenocarcinoma cell lines: MDA-MB-231 (breast) HCT-116 and Colo-205 (colon), described in Example 5 above. Briefly, cells were plated in 96 well plates and allowed to adhere to the plates. Thereafter, various concentrations of GnRH and NLS-GnRH peptides were incubated with the adhered cells for 24 h. To quantify the extent of damage to the cells by the peptides, the Hemacolor assay was effected as described in Example 5. Viable cells which remained adhered to the 96 plastic plates were fixed and stained. Dye was extracted from the plate by addition of 0.5% SDS in PBS (100 μl) with vigorous mixing. Plates were quantified at 650 nm by spectrophotometer (ELISA reader). Cell viability of ≧95% by Trypan blue exclusion from 400 cells was a prerequisite for each experiment. Note, the color intensity is proportional to the extent of the remaining viability. Data was calculated as EC50, which is defined as the concentration (in μM) of analog that provokes a response half way between the baseline (Bottom=control) and maximum response (Top).

HCT-116 = format: cell-based, human; conditions: 24 h
Description: as §1

MDA-MB-231 = format: cell-based, human; conditions: 24 h
Description: as §1

[1] = test system: female athymic nude mice NCr-nu; experiment: Total tolerated dosage (TTD), single injection; format: in vivo; conditions: observed 14 days
Description: The total tolerated dosage of peptide by mice administered with a single injection was tested.
The test compounds were administered to 10 female athymic nude mice NCr-nu (Charles River Laboratories, Wilmington, Mass.) as a single injection at the following dosages and routes:
Peptide X was injected intra-peritonealy (IP) at 400, 200, and 100 mg/kg.
Peptide NLS-E was tested intra-venously (IV) at 400, 200, 100, 50 and 25 mg/kg
Different injection volumes of a stock solution at a concentration of 20 mg/ml were used to administer the desired dosages (injection volumes of 0.05, 0.1, and 0.2 ml/10 g body, respectively) The carrier was water for injection at pH 7. […] Individual body weights were measured twice a week.

[2] = test system: female athymic NCr-nu nude mice; experiment: Maximal tolerated dosage (MTD), twice a day for 14 consecutive days; format: in vivo; conditions: for mice that died: five mice per group
Description: The maximum tolerated dosage (MTD) of the test compounds was tested when administered twice a day for 14 consecutive days.
A total of 50 female athymic NCr-nu nude mice (obtained as mentioned in Example 10a) were used as follows: five groups of mice with five mice per group per compound. Peptides dissolved in water at pH 7 (the vehicle) were evaluated at four dosages (The dosages selected were derived from the results of the TTD experiment, Example 10a):
Peptide X was injected IP at 20 mg/kg/injection for 7 days, followed by IP injections at […] 10, 5, 2.5 mg/kg/injection for 7 days followed by 30, 15 and 7.5 mg/kg, for 14 days respectively.
Peptide NLS-E was tested at 10, 5, 2.5, and 1.25 mg/kg/injection followed by injection at 30, 15, 7.5 and 3.75 mg/kg respectively. Injections were given IV except in the groups treated with 10/30 and 5/15 mg/kg/injection, where injections were switched to IP route on day 10 of treatment.
Additionally, one vehicle-treated control group of five mice per compound was included in the experiment. […] The MTD study was terminated on Day 29.
Individual body weights were measured twice a week.

[3] = test system: Colo-205 adenocarcioma cell line; experiment: Growth inhibitory effect by Hemacolor assay on Colo-205 (Example 7); format: cell-based, human; conditions: for pEC50: read-out: Concentration required to obtain 50% viability; for EC50: read-out: Concentration [M] × 10^−6 (derived from table 10)
Source text: Peptides were synthesized as described in Example 6 above.
Table 10 below summarizes the concentration of the various peptides required to obtain 50% viability, or to destroy 50% of the tumor cells, as derived from the hemacolor test (FIGS. 3 and 4a-c). Of note, the higher the concentration of peptide required, the poorer the potency of the analog.

Compound	pEC50 (Colo-205)	pEC50 (HCT-116)	pEC50 (MDA-MB-231)	Activity with respect to NLS-E (%) [3] [%]	pEC50 [3]	EC50 [3] [M]	other results
CCCCCCCCCCCCCCCC(=O)N1CCC[C@H]1C(=O)NCC(=O)N[C@H](Cc1ccccc1)C(=O)N1CCC[C@H]1C(=O)N[C@@H](CO)C(=O)N[C@@H](Cc1ccc(O)cc1)C(=O)N[C@H](CCCCN)C(=O)N[C@@H](CC(C)C)C(=O)N[C@@H](CCCNC(=N)N)C(=O)N1CCC[C@H]1C(=O)NCC(N)=O [SEQ ID NO: 2, Palm-Pro-Gly-D-Phe-Pro-Ser-Tyr-D-Lys-Leu-Arg-Pro-Gly-NH2] (Palmitoyl-PG[dF]PSY[dK]LRPG-NH2)	3.70	3.12	3.40	–	–	–	lethality after single injection ([1]; IP, 100 mg/kg): stayed alive; lethality after single injection ([1]; IP, 200 mg/kg): lethal; lethality after single injection ([1]; IP, 400 mg/kg): lethal; mice that died ([2]; 10/30 mg/kg): one; mice that died ([2]; IP, 20/60 mg/kg): Three
CCCCCCCCCCCCCCCC(=O)N[C@H](CCCCNC(=O)[C@@H](NC(=O)[C@H](CCCCN)NC(=O)[C@H](CCCNC(=N)N)NC(=O)[C@H](CCCCN)NC(=O)[C@H](CCCCN)NC(=O)[C@H](CCCCN)NC(=O)[C@@H]1CCCN1)C(C)C)C(=O)N1CCC[C@H]1C(=O)NCC(=O)N[C@H](Cc1ccccc1)C(=O)N1CCC[C@H]1C(=O)N[C@@H](CO)C(=O)N[C@@H](Cc1ccc(O)cc1)C(=O)N[C@H](CCCCN)C(=O)N[C@@H](CC(C)C)C(=O)N[C@@H](CCCNC(=N)N)C(=O)N1CCC[C@H]1C(=O)NCC(N)=O [SEQ ID NO: 33, Palm-D-Lys(H-Pro-Lys-Lys-Lys-Arg-Lys-Val)-Pro-Gly-D-Phe-Pro-Ser-Tyr-D-Lys-Leu-Arg-Pro-Gly-NH2]	4.17	3.49	3.46	–	–	–	lethality after single injection ([1]; IV, 25 mg/kg): stayed alive; lethality after single injection ([1]; IV, 50 mg/kg): stayed alive; lethality after single injection ([1]; IV, 100 mg/kg): lethal; lethality after single injection ([1]; IV, 200 mg/kg): lethal; lethality after single injection ([1]; IV, 400 mg/kg): lethal; mice that died ([2]; IV injected, all dosages): None; comparative toxicity ([2]; repeated dosing in mice): less toxic than peptide X
Palm-D-Lys-Gly-D-Phe-Pro-Ser-Tyr-D-Lys-Leu-Arg-Pro-Gly-NH2 (Palmitoyl-[dK]G[dF]PSY[dK]LRPG-NH2; SMILES CCCCCCCCCCCCCCCC(=O)N[C@H](CCCCN)C(=O)NCC(=O)N[C@H](Cc1ccccc1)C(=O)N1CCC[C@H]1C(=O)N[C@@H](CO)C(=O)N[C@@H](Cc1ccc(O)cc1)C(=O)N[C@H](CCCCN)C(=O)N[C@@H](CC(C)C)C(=O)N[C@@H](CCCNC(=N)N)C(=O)N1CCC[C@H]1C(=O)NCC(N)=O) [SEQ ID NO: 10]	–	–	–	12.5	4.30	–	–
Palm-D-Lys-Pro-Gly-D-Phe-Pro-Ser-Tyr-D-Lys-Leu-Arg-Pro-Gly-NH2 (Palmitoyl-[dK]PG[dF]PSY[dK]LRPG-NH2; SMILES CCCCCCCCCCCCCCCC(=O)N[C@H](CCCCN)C(=O)N1CCC[C@H]1C(=O)NCC(=O)N[C@H](Cc1ccccc1)C(=O)N1CCC[C@H]1C(=O)N[C@@H](CO)C(=O)N[C@@H](Cc1ccc(O)cc1)C(=O)N[C@H](CCCCN)C(=O)N[C@@H](CC(C)C)C(=O)N[C@@H](CCCNC(=N)N)C(=O)N1CCC[C@H]1C(=O)NCC(N)=O) [SEQ ID NO: 9]	–	–	–	16	4.46	3.5e-05	Activity with respect to NLS peptide (%) ([3]; relative to the corresponding NLS-conjugated peptide): 16%
Palm-Pro-Gly-D-Phe-Ala-Ser-Tyr-D-Lys-Leu-Arg-Pro-Gly-NH2 (Palmitoyl-PG[dF]ASY[dK]LRPG-NH2; SMILES CCCCCCCCCCCCCCCC(=O)N1CCC[C@H]1C(=O)NCC(=O)N[C@H](Cc1ccccc1)C(=O)N[C@@H](C)C(=O)N[C@@H](CO)C(=O)N[C@@H](Cc1ccc(O)cc1)C(=O)N[C@H](CCCCN)C(=O)N[C@@H](CC(C)C)C(=O)N[C@@H](CCCNC(=N)N)C(=O)N1CCC[C@H]1C(=O)NCC(N)=O) [SEQ ID NO: 16]	–	–	–	16	4.46	–	–
Palm-Pro-Gly-D-Phe-Pro-Ser-Tyr-D-Lys(H-Pro-Lys-Lys-Lys-Arg-Lys-Val)-Leu-Arg-Pro-Gly-NH2 [SEQ ID NO: 32]	–	–	–	50	5.00	1e-05	–

— patent US20080027003A1, “Peptides Useful for Treating Gnrh Associated Diseases” (CurePeptide Ltd., priority 2004, published 2008)
